This note sets out measurements from US20070270399A1, “New compounds 302” (priority 2006, published 2007).

In one data set the target is T1, human NK1 receptor (Homo sapiens, UniProt P25103).
T1 construct: expressed in transfected cells; host or cells: CHO cells (AstraZeneca R&D, Wilmington USA), pRcCMV vector
The data set can be described thus: FLIPR assay, inhibition of human NK1 receptor activation (intracellular Ca2+). It counts as cell-based. The settings on record: CHO cells with human NK1 receptor, Substance P agonist at approx. EC60; pKB converted from IC50. The procedure:
(§1) Chinese Hamster Ovary (CHO) K1 cells (obtained from ATCC) were stably transfected with the human NK2 receptor (hNK2R cDNA in pRc/CMV, Invitrogen) or the human NK3 receptor (hNK3R in pcDNA 3.1/Hygro (+)/IRES/CD8, Invitrogen vector modified at AstraZeneca EST-Bio UK, Alderley Park). The cells were transfected with the cationic lipid reagent LIPOFECTAMINE™ (Invitrogen) and selection was performed with Geneticin (G418, Invitrogen) at 1 mg/ml for the hNK2R transfected cells and with Hygromycin (Invitrogen) at 500 μg/ml for the hNK3R transfected cells. Single cell clones were collected by aid of Fluorescence Activated Cell Sorter (FACS), tested for functionality in a FLIPR assay (see below), expanded in culture and cryopreserved for future use. CHO cells stably transfected with human NK1 receptors originates from AstraZeneca R&D, Wilmington USA. Human NK1 receptor cDNA (obtained from RNA-PCR from lung tissue) was subcloned into pRcCMV (Invitrogen). Transfection was performed by Calcium Phosphate and selection with 1 mg/ml G418. […]
(§2) The activity of a compound of the invention to inhibit NK1/NK2/NK3 receptor activation measured as NK1/NK2/NK3 receptor mediated increase in intracellular Ca^2+ was assessed by the following procedure: […]

The next data set deals with T2, human NK2 receptor (Homo sapiens, UniProt P21452).
T2 construct: expressed in transfected cells; host or cells: CHO K1 cells (ATCC), pRc/CMV vector
T2 sequence (P21452 1-398): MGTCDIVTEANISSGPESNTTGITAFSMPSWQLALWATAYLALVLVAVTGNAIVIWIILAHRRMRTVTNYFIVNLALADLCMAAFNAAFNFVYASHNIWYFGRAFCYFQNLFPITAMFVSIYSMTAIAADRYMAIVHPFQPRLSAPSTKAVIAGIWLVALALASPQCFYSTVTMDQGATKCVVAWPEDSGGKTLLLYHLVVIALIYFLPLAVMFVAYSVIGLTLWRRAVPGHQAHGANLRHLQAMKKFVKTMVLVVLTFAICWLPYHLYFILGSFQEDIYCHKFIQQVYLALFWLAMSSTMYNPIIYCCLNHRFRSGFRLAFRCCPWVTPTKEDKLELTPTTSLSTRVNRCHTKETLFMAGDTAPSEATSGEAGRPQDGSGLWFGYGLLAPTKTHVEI
The data set can be described thus: FLIPR assay, inhibition of human NK2 receptor activation (intracellular Ca2+). The format is cell-based. The settings on record: CHO cells with human NK2 receptor, NKA agonist at approx. EC60; pKB converted from IC50. The method, then:
as §1, §2

A further data set concerns the target T3, human NK3 receptor (Homo sapiens, UniProt P29371).
T3 construct: expressed in transfected cells; host or cells: CHO K1 cells (ATCC), pcDNA 3.1/Hygro (+)/IRES/CD8 vector
T3 sequence (P29371 1-465): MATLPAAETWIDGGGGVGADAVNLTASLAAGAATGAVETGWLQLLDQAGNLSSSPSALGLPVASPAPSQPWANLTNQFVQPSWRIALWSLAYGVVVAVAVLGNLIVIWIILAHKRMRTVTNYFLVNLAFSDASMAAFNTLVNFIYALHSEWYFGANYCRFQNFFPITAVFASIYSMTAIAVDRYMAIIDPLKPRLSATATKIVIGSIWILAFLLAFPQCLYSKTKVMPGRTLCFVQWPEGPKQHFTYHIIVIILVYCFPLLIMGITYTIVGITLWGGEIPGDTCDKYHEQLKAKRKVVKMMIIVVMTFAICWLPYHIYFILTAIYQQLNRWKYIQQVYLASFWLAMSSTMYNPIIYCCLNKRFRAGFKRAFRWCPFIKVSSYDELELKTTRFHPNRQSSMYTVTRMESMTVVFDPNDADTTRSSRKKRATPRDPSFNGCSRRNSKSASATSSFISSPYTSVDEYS
As to the kind of experiment: FLIPR assay, inhibition of human NK3 receptor activation (intracellular Ca2+). The settings on record: CHO cells with human NK3 receptor, Pro-7-NKB agonist at approx. EC60; pKB converted from IC50. The format is cell-based. The method, then:
as §1, §2

For data set [1], the target named is hERG-encoded potassium channel (Homo sapiens, UniProt Q12809). The data set can be described thus: Activity against hERG (planar-array-based voltage clamp). It counts as cell-based. The procedure:
The activity of compounds according to formula I against the hERG-encoded potassium channel can be determined according to Kiss L, et al. Assay Drug Dev Technol. 1 (2003), 127-35: “High throughput ion-channel pharmacology: planar-array-based voltage clamp”.
The IC50 values tested as described above were generally greater than 8 μM.
Background: The hERG channel carries a current that helps repolarise heart muscle cells.

A further data set has as its target CYP3A4 (Homo sapiens, UniProt P08684). The data set can be described thus: CYP3A4 inhibition according to Bapiro et al. It counts as in vitro ADME. The procedure: The IC50 values tested according to Bapiro et al; Drug Metab. Dispos. 29, 30-35 (2001) were generally greater than 50 μM.
The nature of data set [2]: Metabolic stability in liver microsomes (intrinsic clearance). It counts as in vitro ADME. The settings on record: human, pH 7.4, 37° C., read-out: CLint (HLM). The procedure:
The metabolic stability of compounds according to formula I can be determined as described below: […]
The rate of biotransformation can be measured as either metabolite(s) formation or the rate of disappearance of the parent compound. The experimental design involves incubation of low concentrations of substrate (usually 1.0 μM) with liver microsomes (usually 0.5 mg/ml) and taking out aliquotes at varying time points (usually 0, 5, 10, 15, 20, 30, 40 min.). The test compound is usually dissolved in DMSO. The DMSO concentration in the incubation mixture is usually 0.1% or less since more solvent can drastically reduce the activities of some CYP450s. Incubations are done in 100 mM potassium phosphate buffer, pH 7.4 and at 37° C. Acetonitrile or methanol is used to stop the reaction. The parent compound is analysed by HPLC-MS. From the calculated half-life, t1/2, the intrinsic clearance, Clint, is estimated by taking microsomal protein concentration and liver weight into account.
On the technique in general: Liver microsomes are vesicles of endoplasmic reticulum, rich in cytochrome P450 enzymes.

T1 sequence (P25103 whole entry): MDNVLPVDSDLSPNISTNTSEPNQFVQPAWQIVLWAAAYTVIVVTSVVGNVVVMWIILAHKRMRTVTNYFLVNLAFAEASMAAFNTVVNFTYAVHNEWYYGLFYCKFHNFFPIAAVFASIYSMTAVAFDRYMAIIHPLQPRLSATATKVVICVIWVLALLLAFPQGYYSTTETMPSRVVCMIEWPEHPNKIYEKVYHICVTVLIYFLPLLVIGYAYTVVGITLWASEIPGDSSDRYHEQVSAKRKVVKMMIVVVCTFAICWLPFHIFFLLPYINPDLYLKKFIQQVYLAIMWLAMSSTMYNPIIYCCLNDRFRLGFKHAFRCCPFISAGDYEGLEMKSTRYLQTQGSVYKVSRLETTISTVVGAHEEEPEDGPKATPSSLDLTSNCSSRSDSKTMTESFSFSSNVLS
hERG-encoded potassium channel, sequence (Q12809 whole entry): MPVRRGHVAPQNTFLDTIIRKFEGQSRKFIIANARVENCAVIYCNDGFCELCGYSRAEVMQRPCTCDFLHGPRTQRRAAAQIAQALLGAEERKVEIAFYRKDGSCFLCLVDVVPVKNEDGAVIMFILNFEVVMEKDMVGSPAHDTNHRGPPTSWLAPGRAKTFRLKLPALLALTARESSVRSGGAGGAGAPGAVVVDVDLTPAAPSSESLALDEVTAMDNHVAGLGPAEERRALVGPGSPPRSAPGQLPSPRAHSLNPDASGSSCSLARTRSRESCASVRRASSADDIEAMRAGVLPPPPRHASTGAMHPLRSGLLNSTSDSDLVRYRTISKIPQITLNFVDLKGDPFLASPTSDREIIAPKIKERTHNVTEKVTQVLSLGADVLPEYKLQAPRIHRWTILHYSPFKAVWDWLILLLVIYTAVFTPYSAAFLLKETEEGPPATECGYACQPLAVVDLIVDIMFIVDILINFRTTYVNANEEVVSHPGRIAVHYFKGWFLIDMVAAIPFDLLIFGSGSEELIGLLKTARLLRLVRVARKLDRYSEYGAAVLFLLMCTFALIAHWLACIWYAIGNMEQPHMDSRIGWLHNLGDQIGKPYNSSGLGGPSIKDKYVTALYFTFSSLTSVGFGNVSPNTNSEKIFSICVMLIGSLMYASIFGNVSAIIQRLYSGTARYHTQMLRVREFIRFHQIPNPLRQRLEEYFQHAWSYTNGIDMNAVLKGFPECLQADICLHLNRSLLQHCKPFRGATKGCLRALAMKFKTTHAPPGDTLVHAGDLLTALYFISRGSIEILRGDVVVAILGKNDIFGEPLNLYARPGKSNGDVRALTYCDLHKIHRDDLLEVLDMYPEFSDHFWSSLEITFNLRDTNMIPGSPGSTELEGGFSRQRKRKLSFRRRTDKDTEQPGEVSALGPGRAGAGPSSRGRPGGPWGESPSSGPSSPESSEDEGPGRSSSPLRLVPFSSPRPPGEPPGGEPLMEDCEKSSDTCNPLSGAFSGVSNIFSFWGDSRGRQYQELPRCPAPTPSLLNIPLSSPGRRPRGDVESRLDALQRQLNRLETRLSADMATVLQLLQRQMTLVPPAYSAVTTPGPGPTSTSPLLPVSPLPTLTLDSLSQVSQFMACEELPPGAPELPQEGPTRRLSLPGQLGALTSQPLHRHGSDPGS
CYP3A4, sequence (P08684 whole entry): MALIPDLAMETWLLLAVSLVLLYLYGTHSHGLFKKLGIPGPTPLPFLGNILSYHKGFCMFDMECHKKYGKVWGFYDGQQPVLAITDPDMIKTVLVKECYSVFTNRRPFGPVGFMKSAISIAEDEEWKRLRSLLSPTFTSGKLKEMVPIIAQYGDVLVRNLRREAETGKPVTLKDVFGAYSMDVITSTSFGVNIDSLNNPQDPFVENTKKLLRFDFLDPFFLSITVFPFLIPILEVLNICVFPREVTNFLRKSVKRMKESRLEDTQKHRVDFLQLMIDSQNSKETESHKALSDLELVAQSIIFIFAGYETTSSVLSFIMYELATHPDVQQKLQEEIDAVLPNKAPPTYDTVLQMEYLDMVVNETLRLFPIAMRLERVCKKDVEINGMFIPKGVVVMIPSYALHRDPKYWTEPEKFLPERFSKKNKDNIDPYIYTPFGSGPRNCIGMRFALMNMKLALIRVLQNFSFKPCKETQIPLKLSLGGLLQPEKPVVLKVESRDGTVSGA

By IC50 is commonly meant the point on the concentration scale where inhibition reaches its midpoint. The low end stands for greater potency, the high end for weaker potency. As to `CN(C[C@@H](CCN1CC(N2CCOCC2)C1)c1ccc(F)cc1)C(=O)c1cc(Cl)cc(C(F)(F)F)c1` [Ex1, 3-Chloro-N-[(2S)-2-(4-fluorophenyl)-4-(3-morpholin-4-ylazetidin-1-yl)butyl]-N-methyl-5-(trifluoromethyl)benzamide], the values for the Kb at human NK1 receptor, at human NK2 receptor and at human NK3 receptor were 25.1 nM, 50.1 nM and 126 nM, respectively. Besides, the IC50 was 8500 nM in data set [1] and over 50000 nM at CYP3A4. In addition, the microsomal CLint at 1 μM in data set [2] came to 39 µL/min/mg.
